Source: US6310091A, “Fungicidal saponin, CAY-1, and isolation thereof from Capsium species fruit” (The United States of America as represented by the …, priority 2000, dated 2001)
Where “and” joins values, the source holds several entries; their conditions need not be identical. Equal entries are not always repeated. Where two headings read alike, the source gives them in different places.

How the values were obtained:
Aspergillus flavus = assay: Time course study against germinating conidia of A. flavus; assay type: cell-based; conditions: for activity at 2 µM / activity at 3 µM / activity at 4 µM / activity at 5 µM / activity at 7.5 µM / activity at 10 µM: read-out: Percent of Mean Control
Procedure: 1. Filamentous fungi. Filamentous fungi used in bioassays included Aspergillus flavus, A. fumigatus, A. niger, A. parasiticus and Fusarium oxysporum. The fungicidal properties of CAY-1 for the nongerminated and germinating conidia of these fungi were determined separately as described by De Lucca et al. [Med. Mycol., 36:291-298 (1998)] and De Lucca et al. [Antimicrob. Agents Chemother. 43:371-373 (1999)]. […] Two separate experiments were conducted in each medium (n=8 per medium).
A suspension of the aforementioned fungi were prepared separately in the appropriate medium. Conidia (10^4 conidia/ml) were used immediately for the nongerminated conidial assays while conidia (10^5 conidia/ml) were incubated for 7.5 hours at 30° C. to obtain germinating conidia. Serial dilutions of CAY-1 were prepared in the appropriate medium (totaling 225 μl) to which was added 25 μl of the conidial suspensions. The control consisted of 225 μl of medium and 25 μl of the conidial suspension. After mixing, the samples were incubated for 30 min (30° C.). Samples were then spread on potato dextrose agar plates which were incubated at 30° C. for 24 hours. Colonies were then enumerated.
4. Time course study. The effect of time and concentration on the activity of CAY-1 was determined against the germinating conidia of A. flavus in 1% (w/v) PBD. Bioassays were performed twice as described above (n=8).
Statistical analyses. ANOVA analyses on ranks for nonparametric data were performed for the bioassays described in this example.

[1] = Mammalian cytotoxicity, HeLa cells (neutral red); assay type: cell-based, Human; conditions: human, hela cells
Procedure: (§1) 1. HeLa cells. Human epitheloid cervical carcinoma cells (ATCC2.2CCL) were grown in MEM media (Mediatech), supplemented with fetal bovine sera and penicillin (De Lucca et al., Antimicrob. Agents Chemother., 1999, 43:371-373). The cells were rinsed with PBS and harvested using trypsin. Cell count was determined manually using trypan blue and cells were diluted to a final concentration of 2.5×10^5 […]. Aliquots of 100 μl were dispensed per well into a 96-well plate. Cells were incubated overnight (18-24 hours) at 37° C. in a humidified 5% (v/v) CO2 environment. Neutral red dye solution was then added to each well culture and re-incubated for 3 hours. Two-fold serial dilutions of CAY-1 were prepared and aliquoted to final concentrations of 5, 10, 20, 30, and 60 μM (6, 12, 25, 37 and 74 μg/ml, respectively). Negative controls without CAY-1 were included. Cells were exposed to the saponin for 1 hour. Supernatants from each well were transferred into another 96-well plate. The remaining cells were lysed using a 2% Triton solution. Glacial acetic acid was then added to supernatants and lysates, and absorbance was read at A540.

HeLa cells = assay: Mammalian cytotoxicity, HeLa cells (neutral red); assay type: cell-based, Human; conditions: at concentrations effective against the fungi and yeast
Procedure: as §1

CC1CCC2(OC1)OC1CC3C4CCC5CC(OC6OC(CO)C(OC7OC(CO)C(O)C(OC8OC(CO)C(O)C(OC9OC(CO)C(O)C(O)C9O)C8O)C7OC7OC(CO)C(O)C(O)C7O)C(O)C6O)C(O)CC5(C)C4CCC3(C)C1C2C (stereo not shown) [CAY-1]
Mean No. of Colonies (Aspergillus flavus; 2.5 min, 1% PDB, 2.0 μM): 184.4
Mean No. of Colonies (Aspergillus flavus; 2.5 min, 1% PDB, 3.0 μM): 174.3
Mean No. of Colonies (Aspergillus flavus; 2.5 min, 1% PDB, 4.0 μM): 170.5
Mean No. of Colonies (Aspergillus flavus; 2.5 min, 1% PDB, 5.0 μM): 170.0
Mean No. of Colonies (Aspergillus flavus; 2.5 min, 1% PDB, 7.5 μM): 160.8
Mean No. of Colonies (Aspergillus flavus; 2.5 min, 1% PDB, 10.0 μM): 154.8
Mean No. of Colonies (Aspergillus flavus; 5.0 min, 1% PDB, 2.0 μM): 182.3
Mean No. of Colonies (Aspergillus flavus; 5.0 min, 1% PDB, 3.0 μM): 190.1
Mean No. of Colonies (Aspergillus flavus; 5.0 min, 1% PDB, 4.0 μM): 171.3
Mean No. of Colonies (Aspergillus flavus; 5.0 min, 1% PDB, 5.0 μM): 172.4
Mean No. of Colonies (Aspergillus flavus; 5.0 min, 1% PDB, 7.5 μM): 163.3
Mean No. of Colonies (Aspergillus flavus; 5.0 min, 1% PDB, 10.0 μM): 89.8
Mean No. of Colonies (Aspergillus flavus; 10.0 min, 1% PDB, 2.0 μM): 135.5
Mean No. of Colonies (Aspergillus flavus; 10.0 min, 1% PDB, 3.0 μM): 110.8
Mean No. of Colonies (Aspergillus flavus; 10.0 min, 1% PDB, 4.0 μM): 119.3
Mean No. of Colonies (Aspergillus flavus; 10.0 min, 1% PDB, 5.0 μM): 84.3
Mean No. of Colonies (Aspergillus flavus; 10.0 min, 1% PDB, 7.5 μM): 32.8
Mean No. of Colonies (Aspergillus flavus; 10.0 min, 1% PDB, 10.0 μM): 24.9
Mean No. of Colonies (Aspergillus flavus; 15 min, 1% PDB, 2.0 μM): 126.0
Mean No. of Colonies (Aspergillus flavus; 15 min, 1% PDB, 3.0 μM): 131.9
Mean No. of Colonies (Aspergillus flavus; 15 min, 1% PDB, 4.0 μM): 109.1
Mean No. of Colonies (Aspergillus flavus; 15 min, 1% PDB, 5.0 μM): 77.6
Mean No. of Colonies (Aspergillus flavus; 15 min, 1% PDB, 7.5 μM): 28.1
Mean No. of Colonies (Aspergillus flavus; 15 min, 1% PDB, 10.0 μM): 4.4
Mean No. of Colonies (Aspergillus flavus; 20 min, 1% PDB, 2.0 μM): 227.4
Mean No. of Colonies (Aspergillus flavus; 20 min, 1% PDB, 3.0 μM): 200.0
Mean No. of Colonies (Aspergillus flavus; 20 min, 1% PDB, 4.0 μM): 156.4
Mean No. of Colonies (Aspergillus flavus; 20 min, 1% PDB, 5.0 μM): 95.5
Mean No. of Colonies (Aspergillus flavus; 20 min, 1% PDB, 7.5 μM): 19.8
Mean No. of Colonies (Aspergillus flavus; 20 min, 1% PDB, 10.0 μM): 7.6
Mean No. of Colonies (Aspergillus flavus; 30 min, 1% PDB, 2.0 μM): 139.8
Mean No. of Colonies (Aspergillus flavus; 30 min, 1% PDB, 3.0 μM): 115.4
Mean No. of Colonies (Aspergillus flavus; 30 min, 1% PDB, 4.0 μM): 84.1
Mean No. of Colonies (Aspergillus flavus; 30 min, 1% PDB, 5.0 μM): 54.2
Mean No. of Colonies (Aspergillus flavus; 30 min, 1% PDB, 7.5 μM): 17.1
Mean No. of Colonies (Aspergillus flavus; 30 min, 1% PDB, 10.0 μM): 13.1
activity at 2 µM (Aspergillus flavus; Aspergillus flavus, 2.5 min, 1% PDB, 2.0 μM): 110%
activity at 3 µM (Aspergillus flavus; Aspergillus flavus, 2.5 min, 1% PDB, 3.0 μM): 104%
activity at 4 µM (Aspergillus flavus; Aspergillus flavus, 2.5 min, 1% PDB, 4.0 μM): 102%
activity at 5 µM (Aspergillus flavus; Aspergillus flavus, 2.5 min, 1% PDB, 5.0 μM): 101%
activity at 7.5 µM (Aspergillus flavus; Aspergillus flavus, 2.5 min, 1% PDB, 7.5 μM): 95.8%
activity at 10 µM (Aspergillus flavus; Aspergillus flavus, 2.5 min, 1% PDB, 10.0 μM): 92.3%
minimal effective concentration (Aspergillus flavus; Aspergillus flavus, 5 min, read-out: lowest concentration with significant lethality): 7.5 µM and 9.3 µg/mL
activity at 2 µM (Aspergillus flavus; Aspergillus flavus, 5 min, 1% PDB, 2.0 μM): 89.2%
activity at 3 µM (Aspergillus flavus; Aspergillus flavus, 5 min, 1% PDB, 3.0 μM): 93%
activity at 4 µM (Aspergillus flavus; Aspergillus flavus, 5 min, 1% PDB, 4.0 μM): 83.8%
activity at 5 µM (Aspergillus flavus; Aspergillus flavus, 5 min, 1% PDB, 5.0 μM): 84.3%
activity at 7.5 µM (Aspergillus flavus; Aspergillus flavus, 5 min, 1% PDB, 7.5 μM): 79.9%
activity at 10 µM (Aspergillus flavus; Aspergillus flavus, 5 min, 1% PDB, 10.0 μM): 43.8%
activity at 2 µM (Aspergillus flavus; Aspergillus flavus, 10 min, 1% PDB, 2.0 μM): 102%
activity at 3 µM (Aspergillus flavus; Aspergillus flavus, 10 min, 1% PDB, 3.0 μM): 83.3%
activity at 4 µM (Aspergillus flavus; Aspergillus flavus, 10 min, 1% PDB, 4.0 μM): 89.7%
activity at 5 µM (Aspergillus flavus; Aspergillus flavus, 10 min, 1% PDB, 5.0 μM): 63.4%
activity at 7.5 µM (Aspergillus flavus; Aspergillus flavus, 10 min, 1% PDB, 7.5 μM): 24.7%
activity at 10 µM (Aspergillus flavus; Aspergillus flavus, 10 min, 1% PDB, 10.0 μM): 18.7%
minimal effective concentration (Aspergillus flavus; Aspergillus flavus, 10 min, 10 minutes post-incubation, 1% PDB, p=0.0001, read-out: concentration required for significant activity): 5 µM and 6.2 µg/mL
IC95 (Aspergillus flavus; Aspergillus flavus, 0.25 h, read-out: LD95): 10 µM and 12.4 µg/mL
activity at 2 µM (Aspergillus flavus; Aspergillus flavus, 0.25 h, 15 min, 1% PDB, 2.0 μM): 98.4%
activity at 3 µM (Aspergillus flavus; Aspergillus flavus, 0.25 h, 15 min, 1% PDB, 3.0 μM): 103%
activity at 4 µM (Aspergillus flavus; Aspergillus flavus, 0.25 h, 15 min, 1% PDB, 4.0 μM): 85.2%
activity at 5 µM (Aspergillus flavus; Aspergillus flavus, 0.25 h, 15 min, 1% PDB, 5.0 μM): 60.6%
activity at 7.5 µM (Aspergillus flavus; Aspergillus flavus, 0.25 h, 15 min, 1% PDB, 7.5 μM): 22%
activity at 10 µM (Aspergillus flavus; Aspergillus flavus, 0.25 h, 15 min, 1% PDB, 10.0 μM): 3.4%
activity at 2 µM (Aspergillus flavus; Aspergillus flavus, 20 min, 1% PDB, 2.0 μM): 98.9%
activity at 3 µM (Aspergillus flavus; Aspergillus flavus, 20 min, 1% PDB, 3.0 μM): 87%
activity at 4 µM (Aspergillus flavus; Aspergillus flavus, 20 min, 1% PDB, 4.0 μM): 68%
activity at 5 µM (Aspergillus flavus; Aspergillus flavus, 20 min, 1% PDB, 5.0 μM): 41.5%
activity at 7.5 µM (Aspergillus flavus; Aspergillus flavus, 20 min, 1% PDB, 7.5 μM): 8.6%
activity at 10 µM (Aspergillus flavus; Aspergillus flavus, 20 min, 1% PDB, 10.0 μM): 3.3%
activity at 2 µM (Aspergillus flavus; Aspergillus flavus, 0.5 h, 30 min, 1% PDB, 2.0 μM): 90.1%
activity at 3 µM (Aspergillus flavus; Aspergillus flavus, 0.5 h, 30 min, 1% PDB, 3.0 μM): 74.4%
activity at 4 µM (Aspergillus flavus; Aspergillus flavus, 0.5 h, 30 min, 1% PDB, 4.0 μM): 54.2%
activity at 5 µM (Aspergillus flavus; Aspergillus flavus, 0.5 h, 30 min, 1% PDB, 5.0 μM): 34.9%
activity at 7.5 µM (Aspergillus flavus; Aspergillus flavus, 0.5 h, 30 min, 1% PDB, 7.5 μM): 11%
activity at 10 µM (Aspergillus flavus; Aspergillus flavus, 0.5 h, 30 min, 1% PDB, 10.0 μM): 8.4%
MCC at 1 h [1]: 30 µM and 37 µg/mL
cytotoxicity at 1 h, 30 µM [1]: ~13%
cytotoxicity at 1 h, 60 µM [1]: ~32%
lethality to mammalian cells (HeLa cells): not lethal
